In BindingDB's records for doi:10.1021/ml400408c (Wesleyan University, 2014):

Biological target: T1, Penicillin-binding protein 4 (Bacillus subtilis (strain 168), UniProt P40750)
T1 sequence (P40750 whole entry): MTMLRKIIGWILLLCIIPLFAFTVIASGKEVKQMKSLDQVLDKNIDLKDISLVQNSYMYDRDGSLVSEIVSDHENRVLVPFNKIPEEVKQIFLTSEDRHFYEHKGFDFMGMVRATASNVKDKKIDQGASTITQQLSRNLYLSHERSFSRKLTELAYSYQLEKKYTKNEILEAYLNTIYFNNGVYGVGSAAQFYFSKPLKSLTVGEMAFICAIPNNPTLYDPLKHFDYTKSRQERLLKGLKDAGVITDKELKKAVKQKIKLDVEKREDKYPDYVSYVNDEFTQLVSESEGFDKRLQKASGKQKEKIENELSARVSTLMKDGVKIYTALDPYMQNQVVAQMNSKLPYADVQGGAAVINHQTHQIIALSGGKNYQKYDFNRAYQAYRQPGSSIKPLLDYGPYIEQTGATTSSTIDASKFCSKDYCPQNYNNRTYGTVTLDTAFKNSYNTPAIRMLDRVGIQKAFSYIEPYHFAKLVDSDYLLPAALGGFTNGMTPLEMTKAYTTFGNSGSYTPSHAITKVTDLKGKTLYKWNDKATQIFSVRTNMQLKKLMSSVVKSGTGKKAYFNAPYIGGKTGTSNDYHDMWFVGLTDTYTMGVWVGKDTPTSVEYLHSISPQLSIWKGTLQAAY
Experiment: Inhibition of Bacillus subtilis 168 PBP4 after 30 mins by SDS-PAGE
Conditions: read-out: kon (M-1-s-1)

CC1(C)S[C@@H]2[C@H](NC(=O)COc3ccccc3)C(=O)N2[C@H]1C(=O)O [Beepen-VK]
kon: 19000 M⁻¹ s⁻¹
